# Source: publication PMC8453901, “GLPG1205, a GPR84 Modulator: Safety, Pharmacokinetics, and Pharmacodynamics in Healthy Subjects” (Clinical Pharmacology in Drug Development, 2021)
# Columns and labels:
# [1] = Safety and tolerability, study 2; type: in vivo, human
# Method: Safety and tolerability were assessed on the basis of adverse events (AEs), which were monitored throughout both studies. Additional safety assessments included vital signs (including supine [and standing in study 2] heart rate, systolic and diastolic blood pressure, and oral body temperature), 12‐lead electrocardiogram (ECG), clinical laboratory tests (hematology, coagulation [study 2 only], serum/plasma chemistry, urinalysis, urine drug screen, serology, and alcohol breath test), and a comprehensive physical examination. In the SAD part of study 1, clinical laboratory tests, physical examination, and vital signs were assessed at the screening visit, at the time of dosing (0 hours after dose), 24 hours after dosing and at follow‐up (7 to 10 days after the final dose). Vital signs were additionally observed 2 hours after dosing, and the 12‐lead ECG was additionally completed at 1, 2, 6, 8, and 12 hours after dosing. In the MAD part of study 1, all additional safety assessments were performed at screening; days 1, 2, 8, 14, and 15; and at follow‐up. In study 2, additional safety assessments were performed at screening (between 21 and 2 days before the first study drug administration); days 1, 2, 5, 10, 14, 15, and 20 (clinical laboratory tests were not performed on day 20); at early discontinuation; and at follow‐up. For study 2, renal function tests (measurement of estimated creatinine clearance rate using the Cockcroft‐Gault equation) were also included in the clinical laboratory tests for safety assessment.
# In both studies, the safety analysis was descriptive and focused on changes from baseline and treatment‐emergent findings.
# [2] = parameters: method as in PMID 32902984; details: mouse, rat, and dog; cited from earlier work
# [3] = part 1, 50 mg QD, 18–50 years (n = 6)
# [4] = part 1, 50 mg QD, 65–74 years (n = 6)
# [5] = part 1, 50 mg QD, ≥ 75 years (n = 6)
# [6] = part 2, 250 mg loading dose + 50 mg QD, 65–74 years (n = 8)
smiles,measurement,setting,value
"O=c1nc(OC[C@@H]2COCCO2)cc2n1CCc1cc(C#CC3CC3)ccc1-2 [GLPG1205, 9‐cyclopropylethynyl‐2‐((S)‐1‐[1,4]dioxan‐2‐ylmethoxy)‐6,7‐dihydropyrimido[6,1‐a]isoquinolin‐4‐one]",Any TEAE,[1]; [3],5 (83.3) number of subjects (%)
same,Diarrhea (TEAE),[1]; [3],0 number of subjects (%)
same,Erectile dysfunction (TEAE),[1]; [3],2 (33.3) number of subjects (%)
same,Gastrointestinal disorders (TEAE),[1]; [3],2 (33.3) number of subjects (%)
same,Headache (TEAE),[1]; [3],3 (50.0) number of subjects (%)
same,Infections and infestations (TEAE),[1]; [3],1 (16.7) number of subjects (%)
same,Nasopharyngitis (TEAE),[1]; [3],1 (16.7) number of subjects (%)
same,Nausea (TEAE),[1]; [3],2 (33.3) number of subjects (%)
same,Nervous system disorders (TEAE),[1]; [3],3 (50.0) number of subjects (%)
same,Reproductive system and breast disorders (TEAE),[1]; [3],2 (33.3) number of subjects (%)
same,Vomiting (TEAE),[1]; [3],0 number of subjects (%)
same,Any TEAE,[1]; [4],5 (83.3) number of subjects (%)
same,Diarrhea (TEAE),[1]; [4],0 number of subjects (%)
same,Erectile dysfunction (TEAE),[1]; [4],0 number of subjects (%)
same,Gastrointestinal disorders (TEAE),[1]; [4],1 (16.7) number of subjects (%)
same,Headache (TEAE),[1]; [4],3 (50.0) number of subjects (%)
same,Infections and infestations (TEAE),[1]; [4],3 (50.0) number of subjects (%)
same,Nasopharyngitis (TEAE),[1]; [4],2 (33.3) number of subjects (%)
same,Nausea (TEAE),[1]; [4],0 number of subjects (%)
same,Nervous system disorders (TEAE),[1]; [4],4 (66.7) number of subjects (%)
same,Reproductive system and breast disorders (TEAE),[1]; [4],0 number of subjects (%)
same,Vomiting (TEAE),[1]; [4],0 number of subjects (%)
same,Any TEAE,[1]; [5],3 (50.0) number of subjects (%)
same,Diarrhea (TEAE),[1]; [5],0 number of subjects (%)
same,Erectile dysfunction (TEAE),[1]; [5],0 number of subjects (%)
same,Gastrointestinal disorders (TEAE),[1]; [5],1 (16.7) number of subjects (%)
same,Headache (TEAE),[1]; [5],0 number of subjects (%)
same,Infections and infestations (TEAE),[1]; [5],0 number of subjects (%)
same,Nasopharyngitis (TEAE),[1]; [5],0 number of subjects (%)
same,Nausea (TEAE),[1]; [5],0 number of subjects (%)
same,Nervous system disorders (TEAE),[1]; [5],0 number of subjects (%)
same,Polyuria (TEAE),[1]; [5],2 (33.3) 2 (33.3) number of subjects (%)
same,Renal and urinary disorders (TEAE),[1]; [5],2 (33.3) 2 (33.3) number of subjects (%)
same,Reproductive system and breast disorders (TEAE),[1]; [5],0 number of subjects (%)
same,Vomiting (TEAE),[1]; [5],0 number of subjects (%)
same,Any TEAE,[1]; [6],7 (87.5) number of subjects (%)
same,Diarrhea (TEAE),[1]; [6],1 (12.5) number of subjects (%)
same,Erectile dysfunction (TEAE),[1]; [6],0 number of subjects (%)
same,Gastrointestinal disorders (TEAE),[1]; [6],4 (50.0) number of subjects (%)
same,Headache (TEAE),[1]; [6],1 (12.5) number of subjects (%)
same,Infections and infestations (TEAE),[1]; [6],0 number of subjects (%)
same,Nasopharyngitis (TEAE),[1]; [6],0 number of subjects (%)
same,Nausea (TEAE),[1]; [6],3 (37.5) number of subjects (%)
same,Nervous system disorders (TEAE),[1]; [6],1 (12.5) number of subjects (%)
same,Polyuria (TEAE),[1]; [6],0 number of subjects (%)
same,Renal and urinary disorders (TEAE),[1]; [6],0 number of subjects (%)
same,Reproductive system and breast disorders (TEAE),[1]; [6],0 number of subjects (%)
same,Vomiting (TEAE),[1]; [6],2 (25.0) number of subjects (%)
same,nausea of mild intensity,"[1]; part 2, loading dose",2 n
same,nausea of moderate intensity,"[1]; part 2, loading dose",1 n
same,oral absolute exposure,[2],≥ 68%
